Structures are written as SMILES.

This test is described as follows: Inhibition of PKCbeta in rat RBL2H3 cells assessed as inhibition of mouse anti-DNP IgE-stimulated beta-hexosaminidase release preincubated for 15 mins followed by mouse anti-DNP IgE stimulation and measured after 3 hrs by 4-nitropheny1-2-acetamide-2-deoxy-beta-glucopyranoside substrate based colorimetric method.

What is called IC50 is the concentration that inhibits the measured activity by half. For the compound `O=C1O/C(=C(/C(=O)O)c2ccc(O)c(O)c2)C(O)=C1c1ccc(O)c(O)c1`, the IC50 is 10.4 µM.

Source of the values: BindingDB's records for doi:10.1016/j.bmcl.2019.126886 (Tokyo University of Agriculture, 2020).
